The values that follow come from patent US20230339915A1 (Vertex Pharmaceuticals Incorporated, priority 2020, published 2023).

For orientation: EC50 means the concentration needed to bring the measured effect to its halfway point. As usually defined, the IC50 is the concentration that gives 50% inhibition.

A value given as a limit tells only on which side of the number the result lay.

For experiment [1], the target named is NL20 human bronchial epithelial cells expressing human Z-AAT (Homo sapiens (Human), UniProt P01009, E366K). Description: AAT Function Assay (MSD Assay NL20-SI Cell Line). It is filed as cell-based. To be noted: functionally active AAT (AAT-hNE complex, MSD) in supernatant of NL20 cells expressing human Z-AAT; read-out: NL20 Functional EC50. Summed up: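 NL20 bronchial epithelial cells expressing Z-AAT, induced with 0.1 μM doxycycline, were treated with compound overnight. Functional AAT in supernatant was measured by complex formation with excess human neutrophil elastase, captured on anti-AAT plates, detected with Sulfo-tagged anti-elastase on MSD, and quantified against M-AAT standards (0.156–320 ng/mL).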
Sequence of NL20 human bronchial epithelial cells expressing human Z-AAT (P01009 25-418 E366K limits assumed): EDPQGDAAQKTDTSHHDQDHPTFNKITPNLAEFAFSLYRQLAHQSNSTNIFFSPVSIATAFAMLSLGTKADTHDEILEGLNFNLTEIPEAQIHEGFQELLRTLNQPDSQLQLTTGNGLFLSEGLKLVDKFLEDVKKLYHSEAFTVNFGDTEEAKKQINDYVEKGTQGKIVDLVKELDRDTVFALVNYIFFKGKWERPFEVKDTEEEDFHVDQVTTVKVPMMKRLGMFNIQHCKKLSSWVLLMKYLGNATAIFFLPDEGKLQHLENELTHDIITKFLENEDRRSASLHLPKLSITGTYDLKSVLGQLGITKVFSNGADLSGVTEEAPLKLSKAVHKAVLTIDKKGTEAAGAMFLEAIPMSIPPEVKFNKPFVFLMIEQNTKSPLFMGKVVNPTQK

Experiment [2] addresses purified Z-AAT protein from human plasma (Homo sapiens (Human), UniProt P01009, E366K). Description: Biochemical Assay (Z-AAT Elastase Activity Assay). To be noted: purified Z-AAT pre-incubated with compound 1 hour, then human neutrophil elastase and fluorescent substrate. In outline:
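Purified plasma Z-AAT (20 nM) preincubated with compounds 1 h at room temperature, then 3 nM human neutrophil elastase added in PBS + 0.01% BRIJ35 for 30 min to form suicide complex. Residual elastase activity read immediately by fluorescence after adding 300 μM MeOSuc-AAPV-AMC substrate solution.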

Sequence of purified Z-AAT protein from human plasma (P01009 25-418 E366K limits assumed): as above

For the compound `CCC(O)c1c(C#N)c2cc(O)ccc2n1-c1ccnc(C)c1` (centres unmarked) [Compound 192, 5-hydroxy-2-(I-hydroxypropyl)-1-(2-methylpyridin-4-yl)-1H-indole-3-carbonitrile], in experiment [1], the EC50 is more than 2 µM. In addition, in experiment [2], the IC50 was more than 30 µM.
The matching figures for `Cc1cc(-n2c(C(C)C)c(C#N)c3cc(O)c(F)cc32)ccc1F` [Compound 193, 6-fluoro-1-(4-fluoro-3-methylphenyl)-5-hydroxy-2-isopropyl-1H-indole-3-carbonitrile]: 0.5 to 2 µM and more than 30 µM.
For `N#Cc1c(C2CCOCC2)n(-c2ccc(F)cc2)c2ccc(O)cc12` [Compound 194, 1-(4-fluorophenyl)-5-hydroxy-2-(tetrahydro-2H-pyran-4-yl)-1H-indole-3-carbonitrile], in experiment [1], the EC50 was 0.5 to 2 µM. The IC50 in experiment [2] is more than 30 µM.
The matching figures for `CC(C)(C)OC(=O)N1CC(c2c(C#N)c3cc(O)ccc3n2-c2ccc(F)cc2)C1` [Compound 195]: more than 2 µM and more than 30 µM.
For `N#Cc1c(C2CNC2)n(-c2ccc(F)cc2)c2ccc(O)cc12` [Compound 196], in that order: more than 2 µM and more than 30 µM.
The matching figures for `N#Cc1c(C2CCC2)n(-c2ccccc2)c2ccc(O)cc12` [Compound 197]: 0.5 to 2 µM and more than 30 µM.
`N#Cc1c(C2CCCO2)n(-c2ccc(F)cc2)c2ccc(O)cc12` (centres unmarked) [Compound 198]: the concentration for a half-maximal effect (EC50) in experiment [1] is more than 2 µM. Moreover, in experiment [2], the IC50 was more than 30 µM.
The matching figures for `CC(C)(C)OC(=O)N1CCC(c2c(C#N)c3cc(O)ccc3n2-c2ccc(F)cc2)CC1` [Compound 199]: more than 2 µM and more than 30 µM.
For `N#Cc1c(C2CCNCC2)n(-c2ccc(F)cc2)c2ccc(O)cc12` [Compound 200], in that order: more than 2 µM and more than 30 µM.
On to `N#Cc1c(C2CCOCC2)n(-c2ccccc2)c2ccc(O)cc12` [Compound 202], for which the EC50 in experiment [1] is more than 2 µM. The IC50 in experiment [2] is more than 30 µM.
For `N#Cc1c(C2CC2)n(-c2ccc(F)cc2)c2ccc(O)cc12` [Compound 203], in that order: less than 0.5 µM and more than 30 µM.
Turning to `CCCn1c(C(C)C)c(C#N)c2cc(O)ccc21` [Compound 204, 5-hydroxy-2-isopropyl-1-propyl-1H-indole-3-carbonitrile], the EC50 in experiment [1] was more than 2 µM. Further, in experiment [2], the IC50 was more than 30 µM.
Turning to `CCCn1c(C(C)(C)C)c(C#N)c2cc(O)ccc21` [Compound 205, 2-(tert-butyl)-5-hydroxy-1-propyl-1H-indole-3-carbonitrile], in experiment [1], the EC50 is more than 2 µM. Also, the IC50 in experiment [2] was more than 30 µM.
On to `CS(N)(=O)=Cc1c(C#N)c2cc(O)ccc2n1-c1ccc(F)cc1` (centres unmarked) [Compound 206, 1-(3-cyano-1-(4-fluorophenyl)-5-hydroxy-1H-indol-2-yl)-S-methylmethanesulfinamide], for which the EC50 in experiment [1] was more than 2 µM. In addition, the half-inhibitory concentration (IC50) in experiment [2] is more than 30 µM.
In the case of `N#Cc1c(C2=S(N)(=O)CCC2)n(-c2ccc(F)cc2)c2ccc(O)cc12` (centres unmarked) [Compound 207], in experiment [1], the EC50 is more than 2 µM. In addition, in experiment [2], the IC50 was more than 30 µM.
Turning to `Cc1cc(-n2c(C)c(C#N)c3cc(O)cc(C)c32)ccc1F` [Compound 208, 1-(4-fluoro-3-methylphenyl)-5-hydroxy-2,7-dimethyl-1H-indole-3-carbonitrile], the EC50 in experiment [1] was more than 2 µM. For the same compound, the IC50 in experiment [2] is more than 30 µM.
For `Cc1cc2c(cc1O)c(C#N)c(C)n2-c1ccc(F)c(C)c1` [Compound 210], in that order: more than 2 µM and more than 30 µM.
As to `Cc1cc(-n2c(C)c(C#N)c3cc(O)c(N)cc32)ccc1F` [Compound 211, 6-amino-1-(4-fluoro-3-methylphenyl)-5-hydroxy-2-methyl-1H-indole-3-carbonitrile], in experiment [1], the EC50 is more than 2 µM. In experiment [2], the IC50 was more than 30 µM.
For `Cc1cc(-n2c(C)c(C#N)c3cc(O)cc(N)c32)ccc1F` [Compound 212, 7-amino-1-(4-fluoro-3-methyl-phenyl)-5-hydroxy-2-methyl-indole-3-carbonitrile], in that order: more than 2 µM and more than 30 µM.
The matching figures for `CNS(=O)(=O)N1CC(c2c(C(C)C)n(-c3ccc(F)c(C)c3)c3ccc(O)cc23)C1` [Compound 213, 3-(1-(4-fluoro-3-methylphenyl)-5-hydroxy-2-isopropyl-1H-indol-3-yl)-N-methylazetidine-1-sulfonamide]: more than 2 µM and more than 5 µM.
For `CC(=O)NS(=O)(=O)N1CC(c2c(C(C)C)n(-c3ccc(F)c(C)c3)c3ccc(O)cc23)C1` [Compound 214, N-((3-(1-(4-fluoro-3-methylphenyl)-5-hydroxy-2-isopropyl-1H-indol-3-yl)azetidin-1-yl)sulfonyl)acetamide], in experiment [1], the EC50 was more than 2 µM. Further, the IC50 in experiment [2] was more than 30 µM.
For the compound `Cc1cc(-n2c(C(C)C)c([C@H]3C[C@@H](C#N)C3)c3cc(O)ccc32)ccc1F` [Compound 215, 3-[1-(4-fluoro-3-methyl-phenyl)-5-hydroxy-2-isopropyl-indol-3-yl]cyclobutanecarbonitrile], in experiment [1], the EC50 is more than 2 µM. Besides, the concentration for half-maximal inhibition (IC50) in experiment [2] is more than 5 µM.
As to `Cc1cc(-n2c(C(C)C)c([C@@H]3COC[C@@H]3C#N)c3cc(O)ccc32)ccc1F` [Compound 216], in experiment [1], the EC50 was more than 2 µM. The IC50 in experiment [2] was more than 5 µM.
For `Cc1cc(-n2c(C(C)C)c([C@H]3C[C@@H](c4nn[nH]n4)C3)c3cc(O)ccc32)ccc1F` [Compound 217, 1-(4-fluoro-3-methyl-phenyl)-2-isopropyl-3-[3-(2H-tetrazol-5-yl)cyclobutyl]indol-5-ol], in that order: 0.5 to 2 µM and more than 5 µM.
For `Cc1cc(-n2c(C3CCOCC3)c([C@H]3C[C@H](c4nn[nH]n4)C3)c3cc(O)ccc32)ccc1F` [Compound 218, 1-(4-fluoro-3-methyl-phenyl)-2-tetrahydropyran-4-yl-3-[3-(2H-tetrazol-5-yl)cyclobutyl]indol-5-ol], in that order: more than 2 µM and more than 30 µM.
The matching figures for `Cc1cc(-n2c(C(C)C)c([C@H]3C[C@@H](C(=O)NS(C)(=O)=O)C3)c3cc(O)ccc32)ccc1F` [Compound 219, Cis-3-[1-(4-fluoro-3-methyl-phenyl)-5-hydroxy-2-isopropyl-indol-3-yl]-N-methylsulfonyl-cyclobutanecarboxamide]: more than 2 µM and more than 5 µM.
Regarding `Cc1cc(-n2c(C(C)C)c([C@H]3C[C@H](C(=O)NS(C)(=O)=O)C3)c3cc(O)ccc32)ccc1F` [Compound 220, trans-3-[1-(4-fluoro-3-methyl-phenyl)-5-hydroxy-2-isopropyl-indol-3-yl]-N-methylsulfonyl-cyclobutanecarboxamide], the EC50 in experiment [1] was more than 2 µM. Further, in experiment [2], the IC50 was more than 5 µM.
The matching figures for `Cc1cc(-n2c(C3CCOCC3)c([C@H]3C[C@H](c4noc(=O)[nH]4)C3)c3cc(O)ccc32)ccc1F` [Compound 223, Trans-3-[3-[1-(4-fluoro-3-methyl-phenyl)-5-hydroxy-2-tetrahydropyran-4-yl-indol-3-yl]cyclobutyl]-4H-1,2,4-oxadiazol-5-one]: 0.5 to 2 µM and more than 30 µM.
